Data as given in PMC10748408 (Frontiers in Oncology, 2023).

Assays:
4T1 mammary tumors = assay: Tumor size, weight and volume in 4T1 mammary tumor model; type: in vivo, BALB/c mice; conditions: 12.5, 25 and 50 mg/kg body weight of ART vs untreated tumor-bearing mice
Protocol: Mouse mammary 4T1 cells in passage numbers between 7 and 12 (10^4 cells/ml in 50 µl PBS) were injected into the inguinal 4th mammary fat pad of BALB/c mice ([23], [24]). Normal mice received an equal volume of sterile PBS. A palpable tumor was allowed to develop for 14 days ([24]). […] Normal (mammary fat pad surrounding the 4th inguinal mammary pad), mammary tumor, and organs like lungs, kidney, liver, and blood were collected at the end of the experimental schedule. Body weight and tumor volume of each mouse were recorded daily during the tenure of the experiment. Tumor volume was calculated using the following formula: length (mm) × width^2 (mm) × 0.52 ([25]).

normal mice = assay: Hematological parameters of normal mice treated with ART; type: in vivo, BALB/c mice
Protocol: Blood was drawn for hematological estimations by thoracotomy and collected in heparinized vials. Blood was diluted using RBC diluting fluid (1: 1000) and WBC diluting fluid (1:100), and RBCs and WBCs were counted using a Neubauer counting chamber. Differential count was performed on blood smear stained with Leishman stain and observed under a microscope at 40X magnification (Dewinter Optical Inc., India). The percentage of lymphocytes, neutrophils, monocytes, eosinophils and basophils were recorded according to their nuclear structure ([27]). Hemoglobin content was estimated using Drabkin’s solution (1g sodium bicarbonate, 0.05g potassium cyanide and 0.2g potassium ferricyanide per liter), which lysed RBCs to convert hemoglobin to cyanmethemoglobin. Finally, the hemoglobin content of the test and the standard samples were obtained in gm/dl by recording the O.D. at 540 nm, and using the formula: O.D of test/O.D of standard x concentration of standard ([28]).

MDA-MB-231 cells = assay: Cell viability assay (MTT); type: cell-based; conditions: Homo sapiens, 24 hours
Protocol: (§1) Human triple negative breast cancer cells MDA-MB-231 and murine mammary cancer cells 4T1 were obtained from National Centre for Cell Sciences, Pune, India. Cells were maintained in complete Dulbecco’s Modified Eagle Medium (DMEM) supplemented with 10% FBS and 1% penicillin/streptomycin, and incubated at 37°C in 5% CO2 - 95% humidified atmosphere. Cells in log phase of growth was used for all subsequent experiments ([21]). 1 x 10^5 viable cells were seeded in a 96-well plate. […] Following treatment, wells were washed to remove the media and 100 µl of PBS was added to each well. Finally, 10 µl of MTT solution (5 mg/mL in PBS) was added and incubated at 37°C for 3 hours. The purple crystals formed were dissolved in 150 µl of DMSO. Absorbance was measured at 570 nm in a multi-plate reader Varioskan™ Lux (Thermo Fisher Scientific, USA; [21]).

4T1 cells = assay: Cell viability assay (MTT); type: cell-based, murine; conditions: Mus musculus, 24 hours
Protocol: as §1

[1] = system: cells isolated from the liver, kidney and lungs; assay: MTT viability of cells isolated from organs of treated mice; type: in vivo, BALB/c mice; conditions: MTT assay
Protocol: Tissue samples were immersed in 9 parts of serum-free DMEM and 1 part of enzyme cocktail. Digestion was performed at 37°C for 4 hours. Isolated cells were washed well to remove any remaining enzyme, resuspended in ice-cold PBS and filtered through a single cell mesh to dissociate cell clumps. Cell viability was checked using trypan blue dye exclusion test before using the cells for further assays ([21]). 1 x 10^5 viable cells were seeded in a 96-well plate. […] Following treatment, wells were washed to remove the media and 100 µl of PBS was added to each well. Finally, 10 µl of MTT solution (5 mg/mL in PBS) was added and incubated at 37°C for 3 hours. The purple crystals formed were dissolved in 150 µl of DMSO. Absorbance was measured at 570 nm in a multi-plate reader Varioskan™ Lux (Thermo Fisher Scientific, USA; [21]).

## C[C@@H]1CC[C@H]2[C@@H](C)C(=O)O[C@@H]3O[C@@]4(C)CC[C@@H]1[C@]32OO4 [ART, Artemisinin]
4T1 mammary tumors
  tumor weight and volume: Significant decrease
Normal mice; ART 6.25 mg/kg body wt
  Differential Count % B (Basophils): 0%
  Differential Count % E (Eosinophils): 0%
  Differential Count % L (Lymphocytes): 67± 4.1%
  Differential Count % M (Monocytes): 0%
  Differential Count % N (Neutrophils): 33± 3.1%
  Hb: 13.1 ± 0.45 g/dL
  Total RBC: 8.1± 0.62 10^6cells/mm^3
Normal mice; ART 12.5 mg/kg body wt
  Differential Count % B (Basophils): 0%
  Differential Count % E (Eosinophils): 0%
  Differential Count % L (Lymphocytes): 72± 1.7%
  Differential Count % M (Monocytes): 0%
  Differential Count % N (Neutrophils): 28± 3.5%
  Hb: 14.1 ± 0.47 g/dL
  Total RBC: 7.8± 0.38 10^6cells/mm^3
  Total WBC: 8.3± 1.8 10^3 cells/mm^3
Normal mice; ART 25 mg/kg body wt
  Differential Count % B (Basophils): 0%
  Differential Count % E (Eosinophils): 0%
  Differential Count % L (Lymphocytes): 74± 3.4%
  Differential Count % M (Monocytes): 0%
  Differential Count % N (Neutrophils): 26± 2.3%
  Hb: 14.7 ± 0.39 g/dL
  Total RBC: 8.2± 0.34 10^6cells/mm^3
  Total WBC: 8.75± 2.6 10^3 cells/mm^3
Normal mice; ART 50 mg/kg body wt
  Differential Count % B (Basophils): 0%
  Differential Count % E (Eosinophils): 0%
  Differential Count % L (Lymphocytes): 70± 2.2%
  Differential Count % M (Monocytes): 1%
  Differential Count % N (Neutrophils): 29 ± 3.2%
  Hb: 13.8 ± 0.41 g/dL
  Total RBC: 8.1± 0.41 10^6cells/mm^3
  Total WBC: 8.3± 1.44 10^3 cells/mm^3
MDA-MB-231 cells
  IC50: 5000 nM
4T1 cells
  IC50: 1000 nM
[1]; normal mice treated with ART
  viability of cells isolated from the liver, kidney and lungs: no loss of viability
[1]; tumor-bearing mice, increasing doses of ART
  viability of cells isolated from the liver, kidney and lungs: significantly increased cell viability
